# Source: patent publication US11273166B2, “Methods and compositions for the treatment of obesity” (Monash University, priority 2017, dated 2022)
# How the values were obtained:
# [1] = tested on: PTP1B and TCPTP in the arcuate nucleus of the hypothalamus; experiment: Celastrol i.p. for 10 days in high fat fed Ptpn1fl/fl: Ptpn2fl/fl mice, rAAV-Cre-eGFP vs rAAV-eGFP in ARC; type: in vivo, mouse; conditions: mice lacking PTP1B and TCPTP in the ARC; 20 μg/ml i.p., 10 consecutive days
# Protocol: FIG. 28 The ability of celastrol to promote weight loss in obese mice is abrogated in mice lacking PTP1B and TCPTP in the arcuate nucleus of the hypothalamus. 12-week high fat fed Ptpn1^fl/fl: Ptpn2^fl/fl male mice were bilateral injected with rAAV-eGFP or rAAV-Cre-eGFP into the arcuate nucleus of the hypothalamus (ARC). Two-week post AAV administration mice received Celastrol (20 μg/ml, i.p.) for 10 consecutive days and effects on a) Body weights, b) food intake, c-d) adiposity and lean mass (EchoMRI) was determined
# [2] = target: T1, TCPTP in the arcuate nucleus of the hypothalamus (Mus musculus, UniProt Q06180); experiment: Celastrol i.p. for 10 days in high fat fed Ptpn2fl/fl mice, rAAV-Cre-eGFP vs rAAV-eGFP in ARC; type: in vivo; conditions: mice lacking TCPTP in the ARC; 20 ug/ml i.p., 10 consecutive days
# T1 construct: endogenous in cells; host or cells: arcuate nucleus of the hypothalamus of living high fat fed Ptpn2fl/fl mice
# T1 sequence (Q06180 1-406): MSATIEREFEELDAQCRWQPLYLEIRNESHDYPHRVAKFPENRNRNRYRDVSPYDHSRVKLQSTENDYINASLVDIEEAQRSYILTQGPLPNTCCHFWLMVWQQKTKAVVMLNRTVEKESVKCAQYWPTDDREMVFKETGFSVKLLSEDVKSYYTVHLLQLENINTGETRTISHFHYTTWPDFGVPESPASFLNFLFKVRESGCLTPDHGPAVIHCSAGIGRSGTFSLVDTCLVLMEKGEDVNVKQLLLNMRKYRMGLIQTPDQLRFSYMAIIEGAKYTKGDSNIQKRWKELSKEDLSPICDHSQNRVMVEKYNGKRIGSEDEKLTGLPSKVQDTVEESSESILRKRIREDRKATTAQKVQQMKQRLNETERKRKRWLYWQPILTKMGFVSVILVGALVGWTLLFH
# Protocol: (§1) 12-week high fat fed Ptpn2^fl/fl male mice were bilateral injected with rAAV-eGFP or rAAV-Cre-eGFP into the arcuate nucleus of the hypothalamus (ARC). Two-week post AAV administration mice received Celastrol (20 ug/ml, i.p.) for 10 consecutive days and effects on a-b) Body weights, b-c) food intake, e-f) adiposity and lean mass (EchoMRI) was determined.
# [3] = target: T2, PTP1B in the arcuate nucleus of the hypothalamus (Mus musculus, UniProt P35821); experiment: Celastrol i.p. for 10 days in high fat fed Ptpn1fl/fl mice, rAAV-Cre-eGFP vs rAAV-eGFP in ARC; type: in vivo; conditions: mice lacking PTP1B in the ARC; 20 μg/ml i.p., 10 consecutive days
# T2 construct: endogenous in cells; host or cells: arcuate nucleus of the hypothalamus of living high fat fed Ptpn1fl/fl mice
# T2 sequence (P35821 1-432): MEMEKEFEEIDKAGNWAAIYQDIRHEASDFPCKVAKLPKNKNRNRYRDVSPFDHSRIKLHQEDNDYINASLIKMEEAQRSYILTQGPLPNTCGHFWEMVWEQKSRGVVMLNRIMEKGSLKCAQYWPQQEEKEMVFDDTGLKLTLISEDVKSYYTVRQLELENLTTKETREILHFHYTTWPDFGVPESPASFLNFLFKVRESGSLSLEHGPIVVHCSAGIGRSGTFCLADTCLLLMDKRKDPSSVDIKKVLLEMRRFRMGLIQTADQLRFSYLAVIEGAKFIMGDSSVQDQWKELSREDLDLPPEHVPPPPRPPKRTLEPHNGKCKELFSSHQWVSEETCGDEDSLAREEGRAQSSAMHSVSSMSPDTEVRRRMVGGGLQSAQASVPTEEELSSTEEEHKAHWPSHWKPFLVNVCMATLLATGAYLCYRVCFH
# Protocol: as §1, with “FIG. 30. […] 12-week” for “12-week”, “Ptpn1^fl/fl” for “Ptpn2^fl/fl”, “μg/ml,” for “ug/ml,”, “c-d)” for “b-c)”
smiles,measurement,setting,value
CC1=C(O)C(=O)C=C2C1=CC=C1[C@@]2(C)CC[C@@]2(C)[C@@H]3C[C@](C)(C(=O)O)CC[C@]3(C)CC[C@]12C [celastrol],ability to promote weight loss in obese mice,[1],abrogated
same,ability to promote weight loss in obese mice,[2],partially attenuated
same,ability to promote weight loss in obese mice,[3],partially attenuated
